# Like-named read-outs stand apart in the source and are kept apart here.
# Key:
# [1] = tested on: HIV-1 capsid LEN resistance mutations; details: for Fold decrease in LEN susceptibility: 1 participant
# Description: In HTE participants (Example 4), the resistance analysis population (RAP) during the oral bridging period included 9 participants (16%, 9/57) who met the criteria for resistance analysis, including 4 participants also present in the previous analysis. […];
# [2] = tested on: HIV-1 (MT-4 cells); assay: Inhibitory quotient 4 (4-fold in vitro protein-adjusted 95% effective concentration, MT-4 cells); type: cell-based; details: 4-fold in vitro protein binding-adjusted 95% effective concentration
smiles,measurement,setting,value
"CC(C)(C#Cc1ccc(-c2ccc(Cl)c3c(NS(C)(=O)=O)nn(CC(F)(F)F)c23)c([C@H](Cc2cc(F)cc(F)c2)NC(=O)Cn2nc(C(F)(F)F)c3c2C(F)(F)[C@@H]2C[C@H]32)n1)S(C)(=O)=O [LEN, N—((S)-1-(3-(4-chloro-3-(methylsulfonamido)-1-(2,2,2-trifluoroethyl)-1H-indazol-7-yl)-6-(3-methyl-3-(methylsulfonyl)but-1-yn-1-yl)pyridin-2-yl)-2-(3,5-difluorophenyl)ethyl)-2-((3bS,4aR)-5,5-difluoro-3-(trifluoromethyl)-3b,4,4a,5-tetrahydro-1H-cyclopropa [3,4]cyclopenta [1,2-c]pyrazol-1-yl) acetamide]",Fold decrease in LEN susceptibility,[1]; K70N+N74K,289 fold
same,Mean fold decrease in LEN susceptibility,"[1]; Q67H or Q67Q/H, 3 participants",5.6 fold
same,Fold decrease in LEN susceptibility,[1]; Q67H+K70R+T107T/N,393 fold
same,Plasma concentration corresponding to inhibitory quotient 4 (IQ4),[2],15.5 ng/mL

# From patent US20240390349A1, “DOSING REGIMEN OF CAPSID INHIBITOR” (priority 2023, published 2024)
